# In patent US10357514B2, “Treatment of cancer using anti-CD19 Chimeric Antigen Receptor” (The Trustees of the University of Pennsylvania, priority 2014, dated 2019):
# Read-outs that look alike come from different tables or passages of the source. Marks after values point to notes of the source that are not given here.
# What was measured:
# [1] = system: A/H3N2 strain A/Victoria/361/11; experiment: HI titer and seroconversion to heterologous influenza strain; format: in vivo, human; conditions: for Percentage of subjects who seroconvert to heterologous strain A/H3N2 A/Victoria/361/11: 4 weeks after seasonal influenza vaccination
# [2] = cited from earlier work
# B/Brisbane/60/2008 = experiment: Hemagglutination inhibition titer and seroconversion after 2012 seasonal influenza vaccination; format: in vivo, human; conditions: for HI GMT ratio, B: GMT at week 4 post vaccination/GMT at baseline; for Percent of subjects with seroconversion, B: 4 weeks after vaccination
# Excerpt: (§1) Results were expressed as fluorescence intensity.
# (§2) The primary analysis of geometric mean titer ratios was done using a normal Bayesian regression model with non-informative priors. This model was fitted to each antibody titer on the log scale. The primary outcome in each model was the Day 84 measurement. The Day 63 measurement was included in the outcome vector. The model fitted using SAS 9.2 proc mixed with the prior statement. The covariance structure of the matrix was considered as unstructured (option type=UN). A flat prior was used. For the secondary analysis of seroconversion rates, logistic regression was used.
# (§3) The ability of RAD001 to improve immune function in elderly volunteers was evaluated by measuring the serologic response to the 2012 seasonal influenza vaccine. The hemagglutination inhibition (HI) geometric mean titers (GMT) to each of the 3 influenza vaccine strains at baseline and 4 weeks after influenza vaccination are provided in Table 10. The primary analysis variable was the HI GMT ratio (4 weeks post vaccination/baseline). […] This endpoint was chosen because a 1.2-fold increase in the influenza GMT ratio induced by the MF-59 vaccine adjuvant was associated with a decrease in influenza illness (Iob, A et al. (2005) Epidemiol Infect 133:687-693).
# (§4) Rates of seroconversion 4 weeks after influenza vaccination were also evaluated. Seroconversion was defined as the change from a negative pre-vaccination titer (i.e., HI titer <1:10) to post-vaccination HI titer ≥1:40 or at least 4-fold increase from a non-negative (≥1:10) pre-vaccination HI titer.
# [3] = system: H1N1 A/California/07/2009; experiment: as above; format: in vivo, human; conditions: for HI GMT ratio, A/H1N1: GMT at week 4 post vaccination/GMT at baseline; for Percent of subjects with seroconversion, H1N1: 4 weeks after vaccination
# Excerpt: as §1, §2, §3, §4
# H3N2 A/Victoria/210/2009 = experiment: as above; format: in vivo, human; conditions: for HI GMT ratio, A/H3N2: GMT at week 4 post vaccination/GMT at baseline; for Percent of subjects with seroconversion, H3N2: 4 weeks after vaccination
# Excerpt: as §1, §2, §3, §4
# [4] = Baseline (2 weeks prior to influenza vaccination), 0.5 mg daily, N = 50
# [5] = Baseline (2 weeks prior to influenza vaccination), 5 mg weekly, N = 49
# [6] = Baseline (2 weeks prior to influenza vaccination), 20 mg weekly, N = 49
# [7] = Intention to Treat Population, 0.5 mg, N = 48
# [8] = Intention to Treat Population, 5 mg, N = 49
# [9] = Intention to Treat Population, 20 mg, N = 48
# [10] = Subjects with Baseline Titers <=40, 0.5 mg
# [11] = Subjects with Baseline Titers <=40, 5 mg
# [12] = Subjects with Baseline Titers <=40, 20 mg
# [13] = Week 4 after influenza vaccination, 0.5 mg daily, N = 50
# [14] = Week 4 after influenza vaccination, 5 mg weekly, N = 49
# [15] = Week 4 after influenza vaccination, 20 mg weekly, N = 49
smiles,measurement,setting,value
"CO[C@H]1C[C@@H]2CC[C@@H](C)[C@@](O)(O2)C(=O)C(=O)N2CCCC[C@H]2C(=O)O[C@H]([C@H](C)C[C@@H]2CC[C@@H](OCCO)[C@H](OC)C2)CC(=O)[C@H](C)/C=C(\C)[C@@H](O)[C@@H](OC)C(=O)[C@H](C)C[C@H](C)/C=C/C=C/C=C/1C [RAD001, (1R,9S,12S,15R,16E,18R,19R,21R,23S,24E,26E,28E,30S,32S,35R)-1,18-dihydroxy-12-{(1R)-2-[(1S,3R,4R)-4-(2-hydroxyethoxy)-3-methoxycyclohexyl]-1-methylethyl}-19,30-dimethoxy-15,17,21,23,29,35-hexamethyl-11,36-dioxa-4-aza-tricyclo[30.3.1.04,9]hexatriaconta-16,24,26,28-tetraene-2,3,10,14,20-pentaone]",Percentage of subjects who seroconvert to heterologous strain A/H3N2 A/Victoria/361/11,[1]; 0.5 mg daily,38%
same,Percentage of subjects who seroconvert to heterologous strain A/H3N2 A/Victoria/361/11,[1]; 5 mg weekly,39%*
same,Percentage of subjects who seroconvert to heterologous strain A/H3N2 A/Victoria/361/11,[1]; 20 mg weekly,40%*
same,increase in HI GMT ratio for heterologous strain versus placebo,[1]; RAD001 cohorts,higher
same,H3N2 heterologous strain seroconversion rate,"[1]; pooled RAD001 cohorts, versus 20% placebo, p=0.007",39%
same,trough level of RAD001,[2]; 10 mg daily oncology dosing regimen,approximately 20 ng/ml
same,trough level of RAD001,[2]; 0.75-1.5 mg bid transplant dosing regimen,approximately 3 ng/ml
same,"HI GMT, B",B/Brisbane/60/2008; [4],44.2
same,"HI GMT, B",B/Brisbane/60/2008; [5],64.8
same,"HI GMT, B",B/Brisbane/60/2008; [6],58.0
same,"HI GMT ratio, B","B/Brisbane/60/2008; 0.5 mg daily, N = 50",2.5
same,"HI GMT ratio, B","B/Brisbane/60/2008; 5 mg weekly, N = 49",2.2
same,"HI GMT ratio, B","B/Brisbane/60/2008; 20 mg weekly, N = 49",2.1
same,"Percent of subjects with seroconversion, B",B/Brisbane/60/2008; [7],27%
same,"Percent of subjects with seroconversion, B",B/Brisbane/60/2008; [8],22%
same,"Percent of subjects with seroconversion, B",B/Brisbane/60/2008; [9],19%
same,"Percent of subjects with seroconversion, B",B/Brisbane/60/2008; [10],40* Percent
same,"Percent of subjects with seroconversion, B",B/Brisbane/60/2008; [11],33%
same,"Percent of subjects with seroconversion, B",B/Brisbane/60/2008; [12],28%
same,"HI GMT, B",B/Brisbane/60/2008; [13],98.4
same,"HI GMT, B",B/Brisbane/60/2008; [14],117.3
same,"HI GMT, B",B/Brisbane/60/2008; [15],99.2
same,"HI GMT, A/H1N1",[3]; [4],102.8
same,"HI GMT, A/H1N1",[3]; [5],84.2
same,"HI GMT, A/H1N1",[3]; [6],90.1
same,"HI GMT ratio, A/H1N1","[3]; 0.5 mg daily, N = 50",2.6
same,"HI GMT ratio, A/H1N1","[3]; 5 mg weekly, N = 49",2.5
same,"HI GMT ratio, A/H1N1","[3]; 20 mg weekly, N = 49",1.8
same,"Percent of subjects with seroconversion, H1N1",[3]; [7],27%
same,"Percent of subjects with seroconversion, H1N1",[3]; [8],27%
same,"Percent of subjects with seroconversion, H1N1",[3]; [9],17%
same,"Percent of subjects with seroconversion, H1N1",[3]; [10],42%
same,"Percent of subjects with seroconversion, H1N1",[3]; [11],45%
same,"Percent of subjects with seroconversion, H1N1",[3]; [12],36%
same,"HI GMT, A/H1N1",[3]; [13],190.2
same,"HI GMT, A/H1N1",[3]; [14],198.73
same,"HI GMT, A/H1N1",[3]; [15],129.7
same,"HI GMT, A/H3N2",H3N2 A/Victoria/210/2009; [4],106.8
same,"HI GMT, A/H3N2",H3N2 A/Victoria/210/2009; [5],126.04
same,"HI GMT, A/H3N2",H3N2 A/Victoria/210/2009; [6],137.1
same,"HI GMT ratio, A/H3N2","H3N2 A/Victoria/210/2009; 0.5 mg daily, N = 50",2.1
same,"HI GMT ratio, A/H3N2","H3N2 A/Victoria/210/2009; 5 mg weekly, N = 49",2.0
same,"HI GMT ratio, A/H3N2","H3N2 A/Victoria/210/2009; 20 mg weekly, N = 49",2.1
same,"Percent of subjects with seroconversion, H3N2",H3N2 A/Victoria/210/2009; [7],27%
same,"Percent of subjects with seroconversion, H3N2",H3N2 A/Victoria/210/2009; [8],24%
same,"Percent of subjects with seroconversion, H3N2",H3N2 A/Victoria/210/2009; [9],25%
same,"Percent of subjects with seroconversion, H3N2",H3N2 A/Victoria/210/2009; [10],64%
same,"Percent of subjects with seroconversion, H3N2",H3N2 A/Victoria/210/2009; [11],53%
same,"Percent of subjects with seroconversion, H3N2",H3N2 A/Victoria/210/2009; [12],71%
same,"HI GMT, A/H3N2",H3N2 A/Victoria/210/2009; [13],194.4
same,"HI GMT, A/H3N2",H3N2 A/Victoria/210/2009; [14],223.0
same,"HI GMT, A/H3N2",H3N2 A/Victoria/210/2009; [15],223.0
